Measurements from patent publication US20260325533A1, “CDK INHIBITOR COMPOUNDS” (ALEKSIA THERAPEUTICS, INC., priority 2023, published 2026).
Read-outs that look alike come from different tables or passages of the source.

Key:
CDK2/CCNE1 = CDK2/CCNE1 (Homo sapiens, UniProt P24941); assay: CDK2 homogeneous time-resolved fluorescence (HTRF) kinase assay; assay type: biochemical
Description: (§1) A CDK homogeneous time-resolved fluorescence (HTRF) assay was used to assess the potency of the compounds described herein.
(§2) To an untreated 384-well microtiter plate (ProxiPlate) was added 100 nL 100×test compound in DMSO and 5 μL 2×CDK enzyme in assay buffer (50 mM HEPES, 1 mM EGTA, 10 mM MgCl2, 0.01% Tween 20, 2 mM DTT). The plate was centrifuged at 800 RPM for 1 min then incubated for 20 min at 23 °C. 2.5 μL per well of 4×ATP and 2.5 μL 4×ULight™-eIF4E-binding protein 1 (Thr37/46) Peptide substrate were added to all wells. After addition, the plates were centrifuged at 800 RPM for 1 min. The plates were incubated at 23 °C for 60 min. 5 μL per well 4×EDTA solution were added to each well to stop the reaction. 5 μL 4×LANCE Ultra Europium-anti-phospho-eIF4E-binding protein 1 (Thr37/46) antibody were added to each well and the plate was centrifuged for 1 min at 800 RPM. The plate was incubated for 60 min at 23 °C. Fluorescence was read at 340 nm excitation and 665 nm emission on an En Vision 2105 fluorescence reader. The final concentrations of reagents in the activity assay were 3 nM CDK2/CCNE1, 1 mM ATP, 50 nM ULight™-eIF4E-binding protein 1 (Thr37/46) Peptide substrate, 1% DMSO, 10 mM EDTA, and 2 nM LANCE Ultra Europium-anti-phospho-eIF4E-binding protein 1 (Thr37/46).
(§3) Dose-response titrations were conducted by using an 11-point, half-logarithmic serial dilution scheme typically starting at 10 μM. Signals were reported as fluorescence units at 665 nm or the ratio of fluorescence units at 665 nm/fluorescence units at 615 nm. Signals are referred to below as “Lance signals”.
(§4) Using this assay, the IC50 values of example compounds were determined. Table 3 illustrates the IC50 for various Example compounds of Formula IA. Table 4 illustrates the IC50 for various other Example compounds of Formula I. ND=not determined.

CDK1/CCNB1 = CDK1/CCNB1 (Homo sapiens, UniProt P06493); assay: CDK1 homogeneous time-resolved fluorescence (HTRF) kinase assay; assay type: biochemical
Description: as §1
as §2, with “were 0.5” for “were 3”, “nM CDK1/CCNB1,” for “nM CDK2/CCNE1,”
as §3, §4

[1] = CDK2/CCNE, 25-250 nM marked x, read-out: CDK2/CCNE IC50 25-250 nM
[2] = CDK1/CCNB, >250 nM marked x, read-out: CDK1/CCNB IC50 >250 nM
[3] = CDK2/CCNE, >250 nM marked x, read-out: CDK2/CCNE IC50 >250 nM
[4] = 0.5 nM CDK1/CCNB1, 1 mM ATP, read-out: CDK1/CCNB IC50 >250 nM
[5] = CDK2/CCNE, <25 nM, read-out: CDK2/CCNE IC50 <25 nM

Sequence of CDK1/CCNB1 (P06493 whole entry): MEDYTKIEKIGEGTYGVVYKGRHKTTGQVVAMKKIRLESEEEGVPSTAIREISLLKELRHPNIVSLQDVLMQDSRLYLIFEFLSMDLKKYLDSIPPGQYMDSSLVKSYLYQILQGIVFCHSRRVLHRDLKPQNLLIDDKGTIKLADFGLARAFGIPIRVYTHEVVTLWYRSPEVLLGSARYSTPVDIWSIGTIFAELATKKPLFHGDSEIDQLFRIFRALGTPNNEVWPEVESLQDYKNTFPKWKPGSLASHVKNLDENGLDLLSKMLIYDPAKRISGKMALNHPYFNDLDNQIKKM
Sequence of CDK1/CCNB1 (P14635 whole entry partner): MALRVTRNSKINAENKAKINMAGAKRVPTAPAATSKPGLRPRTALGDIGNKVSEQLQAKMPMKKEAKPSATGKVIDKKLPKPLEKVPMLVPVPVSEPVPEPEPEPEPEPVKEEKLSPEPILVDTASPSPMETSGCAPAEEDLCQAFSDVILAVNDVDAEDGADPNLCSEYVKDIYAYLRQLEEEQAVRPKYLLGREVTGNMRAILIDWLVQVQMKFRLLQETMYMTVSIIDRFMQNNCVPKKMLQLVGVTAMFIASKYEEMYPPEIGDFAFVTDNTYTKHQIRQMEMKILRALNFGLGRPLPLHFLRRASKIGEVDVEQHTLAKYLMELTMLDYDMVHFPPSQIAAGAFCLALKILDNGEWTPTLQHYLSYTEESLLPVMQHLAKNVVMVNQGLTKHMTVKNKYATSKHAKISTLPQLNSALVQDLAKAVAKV

| Structure (SMILES) | IC50 (CDK2/CCNE1; [1]) [nM] | IC50 (CDK1/CCNB1; [2]) [nM] | also measured |
| --- | --- | --- | --- |
| CS(=O)(=O)N1CCC(Nc2cc3c(N4CCCC4CO)nccc3cn2)CC1 (racemic) [Ex 57, (1-(7-((1-(methylsulfonyl)piperidin-4-yl)amino)-2,6-naphthyridin-1-yl)pyrrolidin-2-yl)methanol] | 25 to 250 | > 250 |  |
| CS(=O)(=O)c1ccc(Nc2cc3c([C@@H]4CCC[C@H](O)C4)nccc3cn2)cc1 (racemic) [Ex 203, (1S,3R)-3-(7-((4-(methylsulfonyl)phenyl)amino)-2,6-naphthyridin-1-yl)cyclohexan-1-ol (cis, racemic)] | 25 to 250 | > 250 |  |
| C=CCN1CCC(c2nccc3cnc(Nc4ccc(S(C)(=O)=O)cc4)cc23)CC1 [Ex 171, 5-(1-allylpiperidin-4-yl)-N-(4-(methylsulfonyl)phenyl)-2,6-naphthyridin-3-amine] |  | > 250 | IC50 (CDK2/CCNE1; [3]): > 250 nM |
| Cc1c(-c2nccc3cnc(Nc4ccc(S(C)(=O)=O)cc4)cc23)ccc2nn(CC3CCNC3)cc12 (racemic) [Ex 195, 5-(4-methyl-2-(pyrrolidin-3-ylmethyl)-2H-indazol-5-yl)-N-(4-(methylsulfonyl)phenyl)-2,6-naphthyridin-3-amine] | 25 to 250 | > 250 |  |
| Cn1cc(-c2nccc3cnc(Nc4ccc(S(C)(=O)=O)cc4)cc23)nn1 [Ex 125, 5-(1-methyl-1H-1,2,3-triazol-4-yl)-N-(4-(methylsulfonyl)phenyl)-2,6-naphthyridin-3-amine] | 25 to 250 | > 250 |  |
| Cc1c(-c2nccc3cnc(Nc4ccc(S(C)(=O)=O)cc4)cc23)ccc2c1cnn2C1CCNCC1 [Ex 182, 5-(4-methyl-1-(piperidin-4-yl)-1H-indazol-5-yl)-N-(4-(methylsulfonyl)phenyl)-2,6-naphthyridin-3-amine] | 25 to 250 | > 250 |  |
| C=CS(=O)(=O)N1CCC(Nc2cc3c(-c4ccc(C#N)nc4)nccc3cn2)CC1 [Ex 109, 5-(7-((1-(vinylsulfonyl)piperidin-4-yl)amino)-2,6-naphthyridin-1-yl)picolinonitrile] | 25 to 250 | > 250 |  |
| N#CC1CCN(c2nccc3cnc(Nc4cccc(CO)c4)cc23)CC1 [Ex 134, 1-(7-((3-(hydroxymethyl)phenyl)amino)-2,6-naphthyridin-1-yl)piperidine-4-carbonitrile] | 25 to 250 | > 250 |  |
| CS(=O)(=O)c1ccc(Nc2cc3c(N4CCC(C#N)CC4)ccnc3cn2)cc1 [Example 959, 1-(6-((4-(methylsulfonyl)phenyl)amino)-1,7-naphthyridin-4-yl)piperidine-4-carbonitrile] |  |  | IC50 (CDK2/CCNE1; 3 nM CDK2/CCNE1, 1 mM ATP, read-out: CDK2/CCNE IC50 >250 nM): > 250 nM; IC50 (CDK1/CCNB1; [4]): > 250 nM |
| N#CC1CCN(c2nccc3cnc(Nc4cccc(OS(=O)(=O)F)c4)cc23)CC1 [Example 13, 3-((5-(4-cyanopiperidin-1-yl)-2,6-naphthyridin-3-yl)amino)phenyl sulfurofluoridate] |  |  | IC50 (CDK2/CCNE1): > 250 nM; IC50 (CDK1/CCNB1): > 250 nM |
| CN(Cc1ccccc1)C1CCN(c2nccc3cnc(NC4CCN(S(C)(=O)=O)CC4)cc23)CC1 [Ex 55, 5-(4-(benzyl(methyl)amino)piperidin-1-yl)-N-(1-(methylsulfonyl)piperidin-4-yl)-2,6-naphthyridin-3-amine] | 25 to 250 | > 250 |  |
| CS(=O)(=O)c1ccc(Nc2ncc3cccc(N4CCC(C#N)CC4)c3n2)cc1 [Example 961, 1-(2-((4-(methylsulfonyl)phenyl)amino)quinazolin-8-yl) piperidine-4-carbonitrile] |  |  | IC50 (CDK2/CCNE1; 3 nM CDK2/CCNE1, 1 mM ATP, read-out: CDK2/CCNE IC50 25-250 nM): 25 to 250 nM; IC50 (CDK1/CCNB1; [4]): > 250 nM |
| CS(=O)(=O)c1ccc(Nc2cc3c(C4CCCC(=O)C4)nccc3cn2)cc1 (racemic) [Ex 204, 3-(7-((4-(methylsulfonyl)phenyl)amino)-2,6-naphthyridin-1-yl)cyclohexan-1-one] | 25 to 250 | > 250 |  |
| Cc1c(-c2nccc3cnc(Nc4ccc(S(C)(=O)=O)cc4)cc23)ccc2nn(CCC#N)cc12 [Ex 197, 3-(4-methyl-5-(7-((4-(methylsulfonyl)phenyl)amino)-2,6-naphthyridin-1-yl)-2H-indazol-2-yl)propanenitrile] | 25 to 250 | > 250 |  |
| CS(=O)(=O)N1CCC(Nc2cc3c(-c4ccncc4)nccc3cn2)CC1 [Ex 83, N-(1-(methylsulfonyl)piperidin-4-yl)-5-(pyridin-4-yl)-2,6-naphthyridin-3-amine] | 25 to 250 | > 250 |  |
| CS(=O)(=O)c1ccc(Nc2cc3c(N4CCCCC4)nc(C=O)cc3cn2)cc1 [Ex 186, 7-((4-(methylsulfonyl)phenyl)amino)-1-(piperidin-1-yl)-2,6-naphthyridine-3-carbaldehyde] | 25 to 250 | > 250 |  |
| CS(=O)(=O)N1CCC(Nc2cc3c(-c4cnc(N)nc4)nccc3cn2)CC1 [Ex 66, 5-(2-aminopyrimidin-5-yl)-N-(1-(methylsulfonyl)piperidin-4-yl)-2,6-naphthyridin-3-amine] |  | > 250 | IC50 (CDK2/CCNE1; [3]): > 250 nM |
| C=CS(=O)(=O)N1CCC(Nc2cc3c(N4CCC(O)CC4)nccc3cn2)CC1 [Ex 105, 1-(7-((1-(vinylsulfonyl)piperidin-4-yl)amino)-2,6-naphthyridin-1-yl)piperidin-4-ol] |  | > 250 | IC50 (CDK2/CCNE1; [5]): < 25 nM |
| C=CS(=O)(=O)c1ccc(Nc2cc3c(-c4cc5cn[nH]c5cc4C)nccc3cn2)cc1 [Ex 209, 5-(6-methyl-1H-indazol-5-yl)-N-(4-(vinylsulfonyl)phenyl)-2,6-naphthyridin-3-amine] | 25 to 250 | > 250 |  |
| COc1ccc(CN2CCC(c3nccc4cnc(Nc5ccc(S(C)(=O)=O)cc5)cc34)CC2)cc1 [Ex 173, 5-(1-(4-methoxybenzyl)piperidin-4-yl)-N-(4-(methylsulfonyl)phenyl)-2,6-naphthyridin-3-amine] |  | > 250 | IC50 (CDK2/CCNE1; [3]): > 250 nM |
| Cc1cc2c(cnn2C)cc1-c1nccc2cnc(NC3CCN(S(C)(=O)=O)CC3)cc12 [Ex 262, 5-(1,6-dimethyl-1H-indazol-5-yl)-N-(1-(methylsulfonyl)piperidin-4-yl)-2,6-naphthyridin-3-amine] |  |  | IC50 (CDK2/CCNE1; [5]): < 25 nM; IC50 (CDK1/CCNB1; CDK1/CCNB, 25-250 nM marked x, read-out: CDK1/CCNB IC50 25-250 nM): 25 to 250 nM |
| CS(=O)(=O)c1ccc(Nc2cc3c(N4CCC(C#N)CC4)nccc3cn2)cc1 [Ex 259, 1-(7-((4-(methylsulfonyl)phenyl)amino)-2,6-naphthyridin-1-yl)piperidine-4-carbonitrile] | 25 to 250 | > 250 |  |
| CS(=O)(=O)N1CCC(Nc2cc3c(-c4ccc(C(=O)O)cc4)nccc3cn2)CC1 [Ex 86, 4-(7-((1-(methylsulfonyl)piperidin-4-yl)amino)-2,6-naphthyridin-1-yl)benzoic acid] |  | > 250 | IC50 (CDK2/CCNE1; [3]): > 250 nM |
| Cc1cc2nn(C)cc2cc1-c1nccc2cnc(NC3CCN(S(C)(=O)=O)CC3)cc12 [Ex 159, 5-(2,6-dimethyl-2H-indazol-5-yl)-N-(1-(methylsulfonyl)piperidin-4-yl)-2,6-naphthyridin-3-amine] | 25 to 250 | > 250 |  |
| C=CS(=O)(=O)N1CCC(Nc2cc3c(N4CCC(OC(C)=O)C4)nccc3cn2)CC1 (racemic) [Ex 104, 1-(7-((1-(vinylsulfonyl)piperidin-4-yl)amino)-2,6-naphthyridin-1-yl)pyrrolidin-3-yl acetate] | 25 to 250 | > 250 |  |
